From PubChem BioAssay (NCI)
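Interpolation was linear, between the two tested concentrations surrounding the appropriate level; five concentrations were tested over 48 hours in 96-well plates. Abbreviation: GI50, concentration required for 50% inhibition of growth. TGI: concentration producing complete growth inhibition.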

Columns and labels:
Assay in all cases: NCI-60 cell line screen, 48 h
OVCAR-3 ovarian = system: OVCAR-3 ovarian
HCC-2998 colon = system: HCC-2998 colon
A498 renal = system: A498 renal
COLO 205 colon = system: COLO 205 colon
SK-MEL-5 melanoma = system: SK-MEL-5 melanoma
CCRF-CEM leukemia = system: CCRF-CEM leukemia
U251 CNS = system: U251 CNS
MCF7 breast = system: MCF7 breast

Compound	GI50 (OVCAR-3 ovarian)	TGI (OVCAR-3 ovarian)	GI50 (HCC-2998 colon)	TGI (HCC-2998 colon)	GI50 (A498 renal)	TGI (A498 renal)	GI50 (COLO 205 colon)	TGI (COLO 205 colon)	GI50 (SK-MEL-5 melanoma)	TGI (SK-MEL-5 melanoma)	GI50 (CCRF-CEM leukemia)	TGI (CCRF-CEM leukemia)	GI50 (U251 CNS)	TGI (U251 CNS)	GI50 (MCF7 breast)	TGI (MCF7 breast)
CCN(CC)CCCC(C)NC(=S)N/N=C(\C)c1ccccn1 (configuration not stated)	3.87 µM	> 100 µM	3.52 µM	> 100 µM	2.57 µM	97 µM	3.25 µM	> 100 µM	1.7 µM	4.2 µM	4.64 µM	> 100 µM	2.78 µM	> 100 µM	2.94 µM	> 100 µM
COc1ccc(C2CC(c3cccc(Nc4ccnc5cc(Cl)ccc45)c3)=NN2c2ccc(Cl)cc2)cc1 (configuration not stated)	11 µM	> 100 µM	3.41 µM	15.1 µM	4.64 µM	53.9 µM	3.78 µM	19.7 µM	3.01 µM	10.2 µM	1.84 µM	43.4 µM	–	–	3.45 µM	44.3 µM
COc1cc(C2C3=C(COC3=O)N(CCO)c3cc4c(cc32)CCC4)cc(OC)c1OC (configuration not stated)	0.0595 µM	0.129 µM	0.0693 µM	0.164 µM	0.0722 µM	1.76 µM	0.0651 µM	0.148 µM	0.0956 µM	0.451 µM	0.13 µM	> 32.5 µM	0.125 µM	> 32.5 µM	0.0986 µM	23.8 µM
COc1ccc(-c2nccn2-c2cc(OC)c(OC)c(OC)c2)cc1	1.07 µM	–	1.09 µM	39.9 µM	0.909 µM	–	0.598 µM	7.29 µM	0.758 µM	> 69.5 µM	8.13 µM	> 100 µM	3.85 µM	> 100 µM	1.27 µM	> 100 µM
CCN(CC)CCC(CNc1c2ccc(Cl)cc2nc2ccc(OC)cc12)c1ccccc1 (configuration not stated)	1.71 µM	4.7 µM	1.09 µM	2.39 µM	1.4 µM	2.75 µM	1.09 µM	2.28 µM	1.7 µM	3.11 µM	1.1 µM	5.17 µM	1.56 µM	3.21 µM	0.505 µM	1.88 µM
Cn1cnc2nc(Cl)nc(Cl)c21	1.84 µM	6.12 µM	3.85 µM	15.6 µM	2.2 µM	6.77 µM	2.18 µM	5.27 µM	2.7 µM	10.8 µM	0.84 µM	22.1 µM	3.27 µM	11.7 µM	0.335 µM	13.2 µM
C=CC(=O)N1CC[C@@H](Oc2nc(Nc3ccc(N4CCC(N5CCN(C)CC5)CC4)cc3)c(C(N)=O)nc2CC)C1	> 100 µM	> 100 µM	> 100 µM	> 100 µM	> 100 µM	> 100 µM	> 100 µM	> 100 µM	> 100 µM	> 100 µM	> 100 µM	> 100 µM	> 100 µM	> 100 µM	> 100 µM	> 100 µM
Cn1c([N+](=O)[O-])cnc1/C=C1\Oc2ccc(Cl)cc2C1=O	0.307 µM	0.952 µM	2.02 µM	4.68 µM	1.89 µM	5.07 µM	0.8 µM	3.15 µM	0.727 µM	2.14 µM	0.199 µM	0.823 µM	1.16 µM	3.01 µM	0.485 µM	4.42 µM
Cc1cccc(NC(=O)c2sc3nc4c(cc3c2N)CCC4)c1C	0.308 µM	1.47 µM	0.687 µM	22.5 µM	0.262 µM	0.938 µM	0.361 µM	1.97 µM	0.268 µM	11.1 µM	0.321 µM	35.8 µM	0.457 µM	15.8 µM	0.261 µM	13.6 µM
C/C=C\C(C)=C/C(C)C(=O)CC(O)CC1CC(=O)NC(=O)C1 (configuration not stated)	–	> 100 µM	–	> 100 µM	–	> 100 µM	–	> 100 µM	–	> 100 µM	–	> 100 µM	–	> 100 µM	–	> 100 µM
COC(=O)c1cc2c([nH]c3ccccc32)c(-c2nc3cc(N(S(=O)(=O)c4ccc(C)cc4)S(=O)(=O)c4ccc(C)cc4)c(OC)cc3cc2CO)n1	> 100 µM	> 100 µM	> 100 µM	> 100 µM	> 100 µM	> 100 µM	> 100 µM	> 100 µM	> 100 µM	> 100 µM	10.3 µM	32 µM	59.5 µM	> 100 µM	> 100 µM	> 100 µM
N#CC1=C(N)Oc2c(ccc3ccccc23)C1c1ccccc1Cl (configuration not stated)	0.197 µM	0.493 µM	0.429 µM	11.6 µM	0.0845 µM	0.496 µM	0.362 µM	12.9 µM	0.487 µM	4.87 µM	0.269 µM	17.2 µM	0.407 µM	17.1 µM	0.383 µM	15.2 µM
Oc1c(Br)cc(Br)c2cccnc12	3.53 µM	15.2 µM	3.61 µM	18.8 µM	2.03 µM	11.5 µM	3.79 µM	25 µM	2.09 µM	5.19 µM	2.63 µM	8.83 µM	3.34 µM	18.8 µM	4.48 µM	> 100 µM
CN(C)c1ccc(/C=C/C(=O)c2ccc(Nc3nc(Nc4ccc(F)cc4)nc(Nc4ccc(Cl)cc4)n3)cc2)cc1	5.48 µM	21.6 µM	15.4 µM	> 100 µM	2.97 µM	18.1 µM	4.26 µM	18.7 µM	2 µM	10.9 µM	2.57 µM	9.44 µM	7.66 µM	70.6 µM	2.61 µM	21.5 µM
